From PubChem BioAssay AID330 (DTP/NCI, 2004)
Where “and” joins values, the source holds several entries; their conditions need not be identical. Equal values may be shown once. Toxic doses and inconclusive results are not listed.

Test system: P388 leukemia ip, CD2F1 mice, survival T/C
Test: NCI In Vivo Anticancer Drug Screen. Data for tumor model P388 Leukemia (intraperitoneal) in CD2F1 (CDF1) mice
Conditions: endpoint: median survival time, higher = longer survival
Procedure, shortened: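 Mice carrying the transplanted tumor received test compound or vehicle. Survival was recorded in each group, and the value is the treated-group measurement divided by that of the vehicle-treated control group.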

[1] = dose: 60.0 mg/kg/injection, schedule: Q01DX005 (ip), vehicle: Klucel (hydroxypropylcellulose) (HPC)
[2] = dose: 50.0 mg/kg/injection, schedule: Q01DX005 (ip), vehicle: Klucel (hydroxypropylcellulose) (HPC)

For `CC(=O)c1ccc(Cl)c(N=Cc2cc(Cl)cc(Cl)c2O)c1`, the T/C (dose: 50.0 mg/kg/injection, schedule: Q01DX009 (ip), vehicle: Klucel (hydroxypropylcellulose) (HPC)) was 91 % of control, the T/C (dose: 100.0 mg/kg/injection, schedule: Q01DX009 (ip), vehicle: Klucel (hydroxypropylcellulose) (HPC)) was 93 % of control and the T/C (dose: 200.0 mg/kg/injection, schedule: Q01DX009 (ip), vehicle: Klucel (hydroxypropylcellulose) (HPC)) was 98 % of control.
With `CCN(C)c1cc(=O)c2ccc3ccccc3c2o1` the T/C (dose: 50.0 mg/kg/injection, schedule: Q01DX009 (ip), vehicle: saline with Tween-80) was 101 % of control and the T/C (dose: 100.0 mg/kg/injection, schedule: Q01DX009 (ip), vehicle: saline with Tween-80) was 105 % of control.
In the case of `Nc1nc(N)c(N2CCN(Cc3ccccc3)CC2)c(Cl)n1`, the T/C (dose: 15.0 mg/kg/injection, schedule: Q01DX005 (ip), vehicle: Klucel (hydroxypropylcellulose) (HPC)) is reported as 101 % of control, the T/C (dose: 30.0 mg/kg/injection, schedule: Q01DX005 (ip), vehicle: Klucel (hydroxypropylcellulose) (HPC)) is reported as 99 % of control and the T/C [1] is reported as 99 % of control and 104 % of control.
In the case of `Nc1ccccc1SCc1csc(-c2ccc(Cl)cc2)n1`, the T/C (dose: 50.0 mg/kg/injection, schedule: Q01DX009 (ip), vehicle: saline) is reported as 103 % of control, the T/C (dose: 100.0 mg/kg/injection, schedule: Q01DX009 (ip), vehicle: saline) is reported as 114 % of control and the T/C (dose: 200.0 mg/kg/injection, schedule: Q01DX009 (ip), vehicle: saline) is reported as 109 % of control.
`Nc1ccccc1Nc1c([N+](=O)[O-])cc(C(F)(F)F)cc1[N+](=O)[O-]` was tested, and the T/C [1] was 103 % of control, the T/C (dose: 120.0 mg/kg/injection, schedule: Q01DX005 (ip), vehicle: Klucel (hydroxypropylcellulose) (HPC)) was 105 % of control and the T/C (dose: 240.0 mg/kg/injection, schedule: Q01DX005 (ip), vehicle: Klucel (hydroxypropylcellulose) (HPC)) was 90 % of control.
In the case of `O=C(CN1CCCCCC1)Nc1ccc2c(c1)C(=O)c1ccc(NC(=O)CN3CCCCCC3)cc1C2=O`, the T/C [2] is reported as 89 % of control, the T/C (dose: 50.0 mg/kg/injection, schedule: Q01DX005 (ip), vehicle: acid diluted with saline) is reported as 97 % of control and the T/C (dose: 100.0 mg/kg/injection, schedule: Q01DX005 (ip), vehicle: Klucel (hydroxypropylcellulose) (HPC)) is reported as 89 % of control. The T/C (dose: 100.0 mg/kg/injection, schedule: Q01DX005 (ip), vehicle: acid diluted with saline) was 99 % of control and the T/C (dose: 200.0 mg/kg/injection, schedule: Q01DX005 (ip), vehicle: acid diluted with saline) was 100 % of control.
With `O=C(Nc1ncc([N+](=O)[O-])s1)c1cc(Cl)cc(Cl)c1` the T/C (dose: 12.5 mg/kg/injection, schedule: Q01DX005 (ip), vehicle: Klucel (hydroxypropylcellulose) (HPC)) was 104 % of control, the T/C (dose: 25.0 mg/kg/injection, schedule: Q01DX005 (ip), vehicle: Klucel (hydroxypropylcellulose) (HPC)) was 100 % of control and the T/C [2] was 100 % of control and 101 % of control.
For `CC(=O)c1c(O)cc(-c2ccccc2)oc1=O`, the T/C (dose: 9.5 mg/kg/injection, schedule: Q01DX005 (ip), vehicle: Klucel (hydroxypropylcellulose) (HPC)) was 91 % of control, the T/C (dose: 19.0 mg/kg/injection, schedule: Q01DX005 (ip), vehicle: Klucel (hydroxypropylcellulose) (HPC)) was 96 % of control and the T/C (dose: 38.0 mg/kg/injection, schedule: Q01DX005 (ip), vehicle: Klucel (hydroxypropylcellulose) (HPC)) was 93 % of control. For the same molecule, the T/C (dose: 76.0 mg/kg/injection, schedule: Q01DX005 (ip), vehicle: Klucel (hydroxypropylcellulose) (HPC)) was 106 % of control.
With `N#Cc1c(-c2ccccc2)c(-c2ccccc2)n[nH]c1=O` the T/C (dose: 25.0 mg/kg/injection, schedule: Q04DX002 (ip), vehicle: distilled water + Tween-80) was 99 % of control, the T/C (dose: 50.0 mg/kg/injection, schedule: Q04DX002 (ip), vehicle: distilled water + Tween-80) was 100 % of control and the T/C (dose: 100.0 mg/kg/injection, schedule: Q01DX001 (ip), vehicle: saline) was 100 % of control. For the same molecule, the T/C (dose: 100.0 mg/kg/injection, schedule: Q04DX002 (ip), vehicle: distilled water + Tween-80) was 98 % of control, the T/C (dose: 200.0 mg/kg/injection, schedule: Q01DX001 (ip), vehicle: saline) was 96 % of control and the T/C (dose: 200.0 mg/kg/injection, schedule: Q04DX002 (ip), vehicle: distilled water + Tween-80) was 98 % of control. For the same molecule, the T/C (dose: 400.0 mg/kg/injection, schedule: Q01DX001 (ip), vehicle: saline) was 100 % of control.
`Cc1ccc(S(=O)(=O)CC(=O)CC(=O)C(=O)NC2C3CC4CC(C3)CC2C4)cc1` (stereo not drawn) was tested, and the T/C (dose: 50.0 mg/kg/injection, schedule: Q01DX005 (ip), vehicle: saline with Tween-80) was 98 % of control, the T/C (dose: 100.0 mg/kg/injection, schedule: Q01DX005 (ip), vehicle: saline with Tween-80) was 90 % of control and the T/C (dose: 200.0 mg/kg/injection, schedule: Q01DX005 (ip), vehicle: saline with Tween-80) was 90 % of control.
With `Cc1cc(NCCCNCCCNc2cc(C)nc3cc([N+](=O)[O-])ccc23)c2ccc([N+](=O)[O-])cc2n1` the T/C (dose: 12.5 mg/kg/injection, schedule: Q01DX009 (ip), vehicle: other) was 150 % of control and the T/C (dose: 25.0 mg/kg/injection, schedule: Q01DX009 (ip), vehicle: other) was 121 % of control.
